# Laboratory results published in ChEMBL document CHEMBL1201862, “PubChem BioAssay data set” (2004).
# Activity calls are given as the source filed them. *1 amine or outer side, *2 acyl side, *3 side chain or, on linkers, in order; H or OH if unused. Where a SMILES comes first, the peptide text is derived from it. Bridges are numbered along the chain shown (N, C = ends). [ ]: non-standard residue; d: D form. ξ: configuration not given here. X1 = CC[C@H](CCC[C@@H](O)[C@@H](C)C(=O)O[C@H](C)[C@@H](C)C/C=C(C)/C(=C\C(=O)[*:1])OC)O[*:2]; NMeξIle = CC[C@H](C)C(NC)C(=O)O; NMeV = CN[C@H](C(=O)O)C(C)C; NMeS = CN[C@@H](CO)C(=O)O
# Experiments:
# [1] = system: INS1; assay: INS-1E survival protection against cytokine death – cell-based, luminescence, retest, dose response (AID 449756); type: functional; conditions: Rattus norvegicus;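 note: cell death triggered by IL-1 beta plus TNF-alpha plus IFN-gamma mixture; protective hits raise ATP signal compared with cytokine alone wells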
# [2] = Luminescence Cell-Based Dose Response to Identify Activators of 5'UTR Stem-Loop Driven Prion Protein mRNA Translation in H4-C Neuroglioblastoma Cells. [Related pubchem assays: 1829 (Project Summary), 1814 (Primary HTS)]; type: functional
# [3] = biological target: T1, Caspase-6 (Homo sapiens, UniProt P55212); assay: inhibition of CASP6 peptide cleavage – biochemical, VEID-R110 fluorescence, cherry-pick, dose response (AID 720632)
# T1 sequence (P55212 whole entry): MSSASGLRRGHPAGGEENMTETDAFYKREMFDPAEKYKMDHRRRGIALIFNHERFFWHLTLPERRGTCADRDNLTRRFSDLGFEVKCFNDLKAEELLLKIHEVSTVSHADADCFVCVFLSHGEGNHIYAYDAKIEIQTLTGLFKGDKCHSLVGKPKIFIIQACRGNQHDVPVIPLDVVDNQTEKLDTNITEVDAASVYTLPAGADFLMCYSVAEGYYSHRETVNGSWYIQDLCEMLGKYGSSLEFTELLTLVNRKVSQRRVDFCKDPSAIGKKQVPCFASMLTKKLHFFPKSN
# [4] = Luminescence Cell-Based Dose Confirmation to Identify Activators of 5'UTR Stem-Loop Driven Alpha-Synuclein mRNA Translation in H4 Neuroglioblastoma Cells. [Related pubchem assays: 1829 (Project Summary), 1814 (Primary HTS)]; type: functional
# [5] = Luminescence Cell-Based Dose Response to Identify Activators of Luciferase Translation or Activity in H4-C Neuroglioblastoma Cells. [Related pubchem assays: 1829 (Project Summary), 1814 (Primary HTS)]; type: functional
# [6] = biological target: T1, Caspase-6; assay: inhibition of CASP6 peptide cleavage – biochemical, VEID-R110 fluorescence, dry powder retest, dose response (AID 743332)
# [7] = system: H4; assay: Luminescence Cell-Based Dose Response HTS to Identify Activators of 5'UTR Stem-Loop Driven Prion Protein mRNA Translation in H4 Neuroglioblastoma Cells. [Related pubchem assays: 1829 (Project Summary), 1814 (Primary HTS)]; type: functional; conditions: Homo sapiens
# [8] = Luminescence Cell-Based Dose Response HTS to Identify Activators of Luciferase Translation or Activity in H4 […] Cells. [Related pubchem assays: 1829 (Project Summary), 1814 (Primary HTS)]; type: functional
# [9] = biological target: Caspase-7 (Homo sapiens, UniProt P55210); assay: caspase-7 enzyme inhibition, selectivity check – biochemical, DEVD-R110 fluorescence, cherry-pick, selectivity assay for caspase-6 inhibitor project, dose response (AID 743295); type: functional
# [10] = DRD fibroblast viability loss – cell-based, non-viral oncogenic, luminescence, dose response (AID 1934); type: functional; conditions: Homo sapiens
# [11] = system: BJ; assay: growth inhibition of engineered Ras-driven BJ cells – cell-based, alamar blue fluorescence, cherrypicked samples, dose response (AID 2631); type: functional; conditions: Homo sapiens;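 note: confirmatory dose-response assay in RAS-dependent BJ fibroblasts engineered with TERT, LT and ST, with cytotoxicity read by fluorescence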
# [12] = system: BJ; assay: BJ-TERT fibroblast viability loss – cell-based, RAS-independent, luminescence, dose response (AID 1933); type: functional; conditions: Homo sapiens
# [13] = biological target: SWI/SNF-related matrix-associated actin-dependent regulator of chromatin subfamily A member 2 (Homo sapiens, UniProt P51531); assay: Luminescence-based cell-based high throughput dose response assay to identify activators of the function of SWI/SNF related, matrix associated, actin dependent regulator of chromatin, subfamily a, member 2 (SMARCA2, BRM).; type: functional
# [14] = system: BJ; assay: cells; type: functional, cell-based; conditions: Homo sapiens
# [15] = Luminescence Cell-Based Dose Retest to Confirm Inhibitors of Cancer Stem Cells. [Related pubchem assays (depositor defined):AID2717, AID2721]; type: functional; conditions: Homo sapiens
# [16] = biological target: Heat shock protein HSP 90-alpha (Homo sapiens, UniProt P07900); type: functional, organism-based
# [17] = Counterscreen for activators of the function of SWI/SNF related, matrix associated, actin dependent regulator of chromatin, subfamily a, member 2 (SMARCA2, BRM): Luminescence-based cell-based high throughput dose response assay to identify non-selective compounds using the VP16 reporter assay.; type: functional
# [18] = system: BJ; assay: BJ-TERT-LT-ST fibroblast viability loss – cell-based, RAS-independent, luminescence, dose response (AID 1935); type: functional; conditions: Homo sapiens;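 note: BJ fibroblasts immortalized with TERT plus LT and ST oncogenes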
# [19] = non-specific 3'UTR reporter inhibition in Clone20-Shn3RL – cell-based, Renilla luciferase, cherry-picked, counter-screen for Shn3 inhibitor project, dose response (AID 624133); type: functional
# [20] = biological target: T2, Protein skinhead-1 (Caenorhabditis elegans, UniProt P34707); type: functional
# T2 sequence (P34707 whole entry): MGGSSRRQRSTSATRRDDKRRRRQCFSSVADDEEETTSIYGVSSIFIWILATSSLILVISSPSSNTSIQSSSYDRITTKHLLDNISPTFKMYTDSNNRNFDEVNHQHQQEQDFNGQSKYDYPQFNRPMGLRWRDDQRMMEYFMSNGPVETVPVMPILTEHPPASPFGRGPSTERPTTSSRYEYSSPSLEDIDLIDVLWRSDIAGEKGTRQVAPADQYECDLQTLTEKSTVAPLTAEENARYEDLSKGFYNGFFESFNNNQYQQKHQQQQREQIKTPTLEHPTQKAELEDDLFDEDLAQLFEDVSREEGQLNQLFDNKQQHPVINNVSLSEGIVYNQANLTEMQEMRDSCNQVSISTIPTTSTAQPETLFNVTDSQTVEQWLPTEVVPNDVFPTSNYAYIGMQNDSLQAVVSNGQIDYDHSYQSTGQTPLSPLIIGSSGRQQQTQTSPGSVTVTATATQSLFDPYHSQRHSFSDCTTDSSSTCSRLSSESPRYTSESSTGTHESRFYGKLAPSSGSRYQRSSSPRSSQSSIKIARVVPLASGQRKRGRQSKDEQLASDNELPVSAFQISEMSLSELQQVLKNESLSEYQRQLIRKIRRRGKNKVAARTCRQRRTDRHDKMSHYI
# [21] = biological target: Galanin receptor type 3 (Homo sapiens, UniProt O60755); assay: Fluorescence-based cell-based primary high throughput dose response assay to identify antagonists of the Galanin Receptor 3 (GalR3).; type: functional
# [22] = reduction of Shn3 3'UTR-driven luciferase in osteoblasts – cell-based, Clone20 osteoblasts, firefly luciferase, cherry-picked, dose response (AID 624132); type: functional;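 note: firefly luciferase luminescence from reporter carrying the Shn3 3'UTR in osteoblasts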
# [23] = biological target: Paired box protein Pax-8 (Homo sapiens, UniProt Q06710); assay: PAX8 transcriptional activity inhibition in RMG-I – RMG-I cells, luciferase, cherry-pick, dose response (AID 687027); type: functional, cell-based;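 note: luciferase reporter driven by Pax8 target thyroperoxidase promoter measured by SteadyGlo luminescence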
# [24] = cells; type: functional, cell-based; conditions: HEK-CNG
# [25] = system: HeLa; assay: viability loss in HeLa cells – cell-based, ATP luminescence, cherry-pick samples, cytotoxicity control, dose response (AID 687004); type: functional; conditions: Homo sapiens
# SWI/SNF-related matrix-associated actin-dependent regulator of chromatin subfamily A member 2, sequence (P51531 whole entry): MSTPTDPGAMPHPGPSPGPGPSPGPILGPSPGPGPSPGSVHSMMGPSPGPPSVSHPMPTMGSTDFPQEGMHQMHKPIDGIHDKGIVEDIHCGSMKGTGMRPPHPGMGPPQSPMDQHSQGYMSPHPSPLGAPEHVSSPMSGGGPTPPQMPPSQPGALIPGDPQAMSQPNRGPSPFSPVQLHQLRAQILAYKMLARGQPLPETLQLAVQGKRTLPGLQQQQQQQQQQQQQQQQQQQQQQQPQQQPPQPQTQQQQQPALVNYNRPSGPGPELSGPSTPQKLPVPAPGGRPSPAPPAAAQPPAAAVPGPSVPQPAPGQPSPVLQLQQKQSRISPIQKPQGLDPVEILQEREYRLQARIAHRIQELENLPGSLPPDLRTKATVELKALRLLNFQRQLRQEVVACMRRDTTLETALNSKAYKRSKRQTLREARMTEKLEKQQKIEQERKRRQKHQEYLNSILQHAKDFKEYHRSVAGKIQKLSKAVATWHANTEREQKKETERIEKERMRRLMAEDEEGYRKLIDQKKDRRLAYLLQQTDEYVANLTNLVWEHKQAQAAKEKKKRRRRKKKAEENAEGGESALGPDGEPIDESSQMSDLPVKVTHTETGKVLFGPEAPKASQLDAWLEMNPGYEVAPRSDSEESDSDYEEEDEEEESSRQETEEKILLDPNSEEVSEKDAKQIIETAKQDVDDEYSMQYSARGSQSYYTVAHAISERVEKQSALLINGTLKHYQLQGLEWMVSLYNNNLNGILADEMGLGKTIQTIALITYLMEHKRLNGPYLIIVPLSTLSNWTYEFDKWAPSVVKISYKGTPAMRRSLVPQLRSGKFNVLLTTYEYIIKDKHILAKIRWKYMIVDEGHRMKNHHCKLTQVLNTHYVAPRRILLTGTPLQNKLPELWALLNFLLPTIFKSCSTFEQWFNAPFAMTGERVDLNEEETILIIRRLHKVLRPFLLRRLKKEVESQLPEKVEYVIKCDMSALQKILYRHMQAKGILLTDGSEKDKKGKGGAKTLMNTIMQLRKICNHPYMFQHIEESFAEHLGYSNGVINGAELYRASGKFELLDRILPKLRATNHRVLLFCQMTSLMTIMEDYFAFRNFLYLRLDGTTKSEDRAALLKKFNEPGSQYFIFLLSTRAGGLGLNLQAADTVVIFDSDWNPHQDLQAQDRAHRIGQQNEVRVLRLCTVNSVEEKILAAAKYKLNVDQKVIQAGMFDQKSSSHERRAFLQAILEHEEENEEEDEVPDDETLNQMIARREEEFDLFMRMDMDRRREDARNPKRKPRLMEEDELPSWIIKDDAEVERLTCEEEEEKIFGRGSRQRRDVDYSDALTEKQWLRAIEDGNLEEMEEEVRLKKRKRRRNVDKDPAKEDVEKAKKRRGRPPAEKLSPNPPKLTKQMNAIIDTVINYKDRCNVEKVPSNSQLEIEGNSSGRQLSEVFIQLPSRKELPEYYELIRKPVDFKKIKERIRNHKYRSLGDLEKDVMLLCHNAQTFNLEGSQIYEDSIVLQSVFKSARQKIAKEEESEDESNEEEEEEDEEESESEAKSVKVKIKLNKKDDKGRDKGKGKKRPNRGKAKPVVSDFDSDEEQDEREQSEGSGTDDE
# Galanin receptor type 3, sequence (O60755 whole entry): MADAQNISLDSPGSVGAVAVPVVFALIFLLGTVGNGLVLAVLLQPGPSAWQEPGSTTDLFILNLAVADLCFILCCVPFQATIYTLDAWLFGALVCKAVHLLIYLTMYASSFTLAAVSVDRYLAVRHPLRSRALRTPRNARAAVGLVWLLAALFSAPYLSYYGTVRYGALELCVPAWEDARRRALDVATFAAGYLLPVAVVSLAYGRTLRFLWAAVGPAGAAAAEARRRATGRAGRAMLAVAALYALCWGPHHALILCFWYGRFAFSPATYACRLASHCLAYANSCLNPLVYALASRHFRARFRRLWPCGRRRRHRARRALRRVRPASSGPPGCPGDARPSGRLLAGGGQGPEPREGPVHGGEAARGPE
# Caspase-7, sequence (P55210 24-198 limits assumed): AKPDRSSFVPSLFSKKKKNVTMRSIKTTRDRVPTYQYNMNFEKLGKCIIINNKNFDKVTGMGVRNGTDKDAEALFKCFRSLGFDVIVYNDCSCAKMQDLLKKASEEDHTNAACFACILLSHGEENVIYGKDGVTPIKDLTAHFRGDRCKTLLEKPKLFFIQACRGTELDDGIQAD
# Caspase-7, sequence (P55210 207-303 limits assumed): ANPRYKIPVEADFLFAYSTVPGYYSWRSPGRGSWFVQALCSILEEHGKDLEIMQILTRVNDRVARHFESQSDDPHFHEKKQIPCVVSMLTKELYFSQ
# Paired box protein Pax-8, sequence (Q06710 whole entry): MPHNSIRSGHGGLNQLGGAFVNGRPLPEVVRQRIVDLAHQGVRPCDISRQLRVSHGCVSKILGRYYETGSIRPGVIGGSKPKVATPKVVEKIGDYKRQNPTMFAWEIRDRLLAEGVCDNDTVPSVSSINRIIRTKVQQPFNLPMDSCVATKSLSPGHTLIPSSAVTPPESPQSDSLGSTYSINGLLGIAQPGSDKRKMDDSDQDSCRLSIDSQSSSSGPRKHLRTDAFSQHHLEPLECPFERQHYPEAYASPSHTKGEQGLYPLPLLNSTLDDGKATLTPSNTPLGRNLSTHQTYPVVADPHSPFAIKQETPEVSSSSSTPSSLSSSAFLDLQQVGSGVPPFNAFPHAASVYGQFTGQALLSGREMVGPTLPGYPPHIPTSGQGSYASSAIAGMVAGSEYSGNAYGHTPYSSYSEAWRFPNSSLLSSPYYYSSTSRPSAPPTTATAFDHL
smiles,measurement,setting,value
[O-][n+]1onc2c1CCc1c-2nn(-c2ccccc2Cl)[n+]1[O-],AC50,[1],6.94 µM (active)
same,EC50,[2],> 12 µM (not active)
same,AC50,[3],651 nM (active)
same,EC50,[4],766 nM (active)
same,EC50,[5],1.41 µM (active)
same,AC50,[6],4.66 µM (active)
same,EC50,[7],> 120 µM (not active)
same,EC50,[8],< 100 nM (inconclusive)
same,AC50,[9],> 70 µM (inactive)
O=C1C=C(c2cccs2)C[C@H](c2ccccc2)[C@H]1n1nnc([N+](=O)[O-])n1,AC50,[1],4.33 µM (active)
same,EC50,[10],5.51 µM (inconclusive)
same,EC50,[11],242 nM (active)
same,EC50,[12],10.3 µM (inconclusive)
same,EC50,[13],> 91.2 µM (inactive)
same,EC50,[14],9.02 µM (inconclusive)
same,AC50,[15],835 nM (active)
same,AC50,[16],7.95 µM (active)
same,EC50,[17],> 91.2 µM (inactive)
same,EC50,[18],3.85 µM (inconclusive)
CC[C@@H]1CCC[C@@H](O)[C@@H](C)C(=O)O[C@H](C)[C@@H](C)C/C=C(C)/C(OC)=C\C(=O)N(C)C([C@@H](C)CC)C(=O)N(C)[C@@H](C(C)C)C(=O)N(C)[C@@H](COC)C(=O)N2CCC[C@H]2C(=O)N(C)[C@@H](C(C)C)C(=O)N2CCC[C@H]2C(=O)O1 (stereo partly specified) ([NMeξIle][NMeV][NMeS](Me)P[NMeV]P; linker N-C via X1),AC50,[19],317 nM (active)
same,IC50,[20],57.6 µM (inactive)
same,IC50,[21],17.1 nM (active)
same,AC50,[22],< 260 nM (active)
same,AC50,[23],< 260 nM (active)
same,EC50,[24],> 29.9 µM (inactive)
COc1ccc(C(=O)NC(=S)Nc2ccccc2N2CCOCC2)cc1[N+](=O)[O-],AC50,[25],> 52 µM (inactive)
